Measurements: ChEMBL document CHEMBL1671662, “In vitro activities of telavancin and six comparator agents against anaerobic bacterial isolates” (2009)
In brackets after ≈: the same amount, converted by molar mass.

Legend:
Format in all cases: functional
[1] = tested on: Clostridium bolteae; test: Antibacterial activity against Clostridium bolteae by CLSI M11-A6 agar dilution method; conditions: Enterocloster bolteae
[2] = tested on: Enterocloster clostridioformis; test: Antibacterial activity against Clostridium clostridioforme by CLSI M11-A6 agar dilution method
[3] = tested on: [Clostridium] innocuum; test: Antibacterial activity against Clostridium innocuum by CLSI M11-A6 agar dilution method
[4] = tested on: Thomasclavelia ramosa; test: Antibacterial activity against Clostridium ramosum by CLSI M11-A6 agar dilution method
[5] = tested on: Clostridium beijerinckii; test: Antibacterial activity against Clostridium beijerinckii by CLSI M11-A6 agar dilution method
[6] = tested on: Paraclostridium bifermentans; test: Antibacterial activity against Clostridium bifermentans by CLSI M11-A6 agar dilution method
[7] = tested on: Clostridium glycolicum; test: Antibacterial activity against Clostridium glycolicum by CLSI M11-A6 agar dilution method; conditions: Terrisporobacter glycolicus
[8] = tested on: Clostridium; test: Antibacterial activity against Clostridium hypermegas by CLSI M11-A6 agar dilution method
[9] = tested on: Clostridium leptum; test: Antibacterial activity against Clostridium leptum by CLSI M11-A6 agar dilution method
[10] = tested on: Clostridium scindens; test: Antibacterial activity against Clostridium scindens by CLSI M11-A6 agar dilution method
[11] = tested on: Clostridium tertium; test: Antibacterial activity against Clostridium tertium by CLSI M11-A6 agar dilution method
[12] = tested on: Actinomyces naeslundii; test: Antibacterial activity against Actinomyces naeslundii by CLSI M11-A6 agar dilution method
[13] = tested on: Bifidobacterium bifidum; test: Antibacterial activity against Bifidobacterium bifidum by CLSI M11-A6 agar dilution method
[14] = tested on: Bifidobacterium breve; test: Antibacterial activity against Bifidobacterium breve by CLSI M11-A6 agar dilution method
[15] = tested on: Bifidobacterium dentium; test: Antibacterial activity against Bifidobacterium dentium by CLSI M11-A6 agar dilution method
[16] = tested on: Eggerthella lenta; test: Antibacterial activity against Eggerthella lenta by CLSI M11-A6 agar dilution method
[17] = tested on: Holdemania filiformis; test: Antibacterial activity against Holdemania filiformis by CLSI M11-A6 agar dilution method
[18] = tested on: Propionibacterium propionicum; test: Antibacterial activity against Propionibacterium propionicus by CLSI M11-A6 agar dilution method; conditions: Arachnia propionica
[19] = tested on: Ruminococcus gnavus; test: Antibacterial activity against Ruminococcus gnavus by CLSI M11-A6 agar dilution method; conditions: Mediterraneibacter gnavus
[20] = tested on: Ruminococcus flavefaciens; test: Antibacterial activity against Ruminococcus flavefaciens by CLSI M11-A6 agar dilution method
[21] = tested on: Blautia producta; test: Antibacterial activity against Ruminococcus productus by CLSI M11-A6 agar dilution method
[22] = tested on: Ruminococcus sp.; test: Antibacterial activity against Ruminococcus sp. by CLSI M11-A6 agar dilution method
[23] = tested on: Anaerococcus prevotii; test: Antibacterial activity against Anaerococcus prevotii by CLSI M11-A6 agar dilution method
[24] = tested on: Peptostreptococcus anaerobius; test: Antibacterial activity against Peptostreptococcus anaerobius by CLSI M11-A6 agar dilution method
[25] = tested on: Parvimonas micra; test: Antibacterial activity against Peptostreptococcus micros by CLSI M11-A6 agar dilution method
[26] = tested on: Streptococcus constellatus; test: Antibacterial activity against Streptococcus constellatus by CLSI M11-A6 agar dilution method
[27] = tested on: Parabacteroides distasonis; test: Antibacterial activity against Parabacteroides distasonis by CLSI M11-A6 agar dilution method
[28] = tested on: Bacteroides fragilis; test: Antibacterial activity against Bacteroides fragilis by CLSI M11-A6 agar dilution method
[29] = tested on: Bacteroides ovatus; test: Antibacterial activity against Bacteroides ovatus by CLSI M11-A6 agar dilution method
[30] = tested on: Phocaeicola vulgatus; test: Antibacterial activity against Bacteroides vulgatus by CLSI M11-A6 agar dilution method
[31] = tested on: Bilophila wadsworthia; test: Antibacterial activity against Bilophila wadsworthia by CLSI M11-A6 agar dilution method
[32] = tested on: Fusobacterium mortiferum; test: Antibacterial activity against Fusobacterium mortiferum by CLSI M11-A6 agar dilution method
[33] = tested on: Prevotella denticola; test: Antibacterial activity against Prevotella P denticola by CLSI M11-A6 agar dilution method
[34] = tested on: Prevotella disiens; test: Antibacterial activity against Prevotella P disiens by CLSI M11-A6 agar dilution method
[35] = tested on: Prevotella intermedia; test: Antibacterial activity against Prevotella intermedia by CLSI M11-A6 agar dilution method
[36] = tested on: Hoylesella loescheii; test: Antibacterial activity against Prevotella loescheii by CLSI M11-A6 agar dilution method
[37] = tested on: Prevotella melaninogenica; test: Antibacterial activity against Prevotella melaninogenica by CLSI M11-A6 agar dilution method
[38] = tested on: Hoylesella oralis; test: Antibacterial activity against Prevotella oralis by CLSI M11-A6 agar dilution method
[39] = tested on: Sutterella wadsworthensis; test: Antibacterial activity against Sutterella wadsworthensis by CLSI M11-A6 agar dilution method

Q: CCCCCCCCCC(=O)N[C@@H](Cc1c[nH]c2ccccc12)C(=O)N[C@H](CC(N)=O)C(=O)N[C@@H](CC(=O)O)C(=O)N[C@@H]1C(=O)NCC(=O)N[C@@H](CCCN)C(=O)N[C@@H](CC(=O)O)C(=O)N[C@H](C)C(=O)N[C@@H](CC(=O)O)C(=O)NCC(=O)N[C@H](CO)C(=O)N[C@@H]([C@H](C)CC(=O)O)C(=O)N[C@@H](CC(=O)c2ccccc2N)C(=O)O[C@@H]1C was tested. Which MIC50 [1] did it give?
A: 4 µg/mL (≈ 2.47 µM)

Q: What about the MIC90 [1] of the same compound?
A: 4 µg/mL (≈ 2.47 µM)

Q: What about the MIC50 [2] of the same compound?
A: 2 µg/mL (≈ 1.23 µM)

Q: What about the MIC90 [2] of the same compound?
A: 4 µg/mL (≈ 2.47 µM)

Q: And the MIC50 [3]?
A: 8 µg/mL (≈ 4.94 µM)

Q: What about the MIC90 [3] of the same compound?
A: 16 µg/mL (≈ 9.87 µM)

Q: And the MIC50 [4]?
A: 64 µg/mL (≈ 39.5 µM)

Q: And the MIC90 [4]?
A: 64 µg/mL (≈ 39.5 µM)

Q: And the MIC50 [5]?
A: 1 µg/mL (≈ 0.617 µM)

Q: What about the MIC90 [5] of the same compound?
A: 8 µg/mL (≈ 4.94 µM)

Q: And the MIC50 [6]?
A: 1 µg/mL (≈ 0.617 µM)

Q: What about the MIC90 [6] of the same compound?
A: 8 µg/mL (≈ 4.94 µM)

Q: And the MIC50 [7]?
A: 1 µg/mL (≈ 0.617 µM)

Q: And the MIC90 [7]?
A: 8 µg/mL (≈ 4.94 µM)

Q: What about the MIC50 [8] of the same compound?
A: 1 µg/mL (≈ 0.617 µM)

Q: And the MIC90 [8]?
A: 8 µg/mL (≈ 4.94 µM)

Q: What about the MIC50 [9] of the same compound?
A: 1 µg/mL (≈ 0.617 µM)

Q: What about the MIC90 [9] of the same compound?
A: 8 µg/mL (≈ 4.94 µM)

Q: What about the MIC50 [10] of the same compound?
A: 1 µg/mL (≈ 0.617 µM)

Q: And the MIC90 [10]?
A: 8 µg/mL (≈ 4.94 µM)

Q: What about the MIC50 [11] of the same compound?
A: 1 µg/mL (≈ 0.617 µM)

Q: What about the MIC90 [11] of the same compound?
A: 8 µg/mL (≈ 4.94 µM)

Q: And the MIC50 [12]?
A: 1 µg/mL (≈ 0.617 µM)

Q: What about the MIC90 [12] of the same compound?
A: 32 µg/mL (≈ 19.7 µM)

Q: And the MIC50 [13]?
A: 1 µg/mL (≈ 0.617 µM)

Q: What about the MIC90 [13] of the same compound?
A: 32 µg/mL (≈ 19.7 µM)

Q: And the MIC50 [14]?
A: 1 µg/mL (≈ 0.617 µM)

Q: And the MIC90 [14]?
A: 32 µg/mL (≈ 19.7 µM)

Q: And the MIC50 [15]?
A: 1 µg/mL (≈ 0.617 µM)

Q: And the MIC90 [15]?
A: 32 µg/mL (≈ 19.7 µM)

Q: And the MIC50 [16]?
A: 1 µg/mL (≈ 0.617 µM)

Q: And the MIC90 [16]?
A: 32 µg/mL (≈ 19.7 µM)

Q: And the MIC50 [17]?
A: 1 µg/mL (≈ 0.617 µM)

Q: And the MIC90 [17]?
A: 32 µg/mL (≈ 19.7 µM)

Q: What about the MIC50 [18] of the same compound?
A: 1 µg/mL (≈ 0.617 µM)

Q: What about the MIC90 [18] of the same compound?
A: 32 µg/mL (≈ 19.7 µM)

Q: What about the MIC50 [19] of the same compound?
A: ≤ 0.12 µg/mL

Q: What about the MIC90 [19] of the same compound?
A: 0.25 µg/mL (≈ 0.154 µM)

Q: And the MIC50 [20]?
A: 1 µg/mL (≈ 0.617 µM)

Q: What about the MIC90 [20] of the same compound?
A: 2 µg/mL (≈ 1.23 µM)

Q: And the MIC50 [21]?
A: 1 µg/mL (≈ 0.617 µM)

Q: And the MIC90 [21]?
A: 2 µg/mL (≈ 1.23 µM)

Q: And the MIC50 [22]?
A: 1 µg/mL (≈ 0.617 µM)

Q: What about the MIC90 [22] of the same compound?
A: 4 µg/mL (≈ 2.47 µM)

Q: And the MIC50 [23]?
A: 1 µg/mL (≈ 0.617 µM)

Q: And the MIC90 [23]?
A: 4 µg/mL (≈ 2.47 µM)

Q: What about the MIC50 [24] of the same compound?
A: 1 µg/mL (≈ 0.617 µM)

Q: What about the MIC90 [24] of the same compound?
A: 4 µg/mL (≈ 2.47 µM)

Q: And the MIC50 [25]?
A: 1 µg/mL (≈ 0.617 µM)

Q: What about the MIC90 [25] of the same compound?
A: 4 µg/mL (≈ 2.47 µM)

Q: And the MIC50 [26]?
A: 2 µg/mL (≈ 1.23 µM)

Q: What about the MIC90 [26] of the same compound?
A: 4 µg/mL (≈ 2.47 µM)

Q: What about the MIC [27] of the same compound?
A: > 128 µg/mL

Q: And the MIC50 [27]?
A: > 128 µg/mL

Q: And the MIC90 [27]?
A: > 128 µg/mL

Q: And the MIC [28]?
A: > 128 µg/mL

Q: And the MIC50 [28]?
A: > 128 µg/mL

Q: What about the MIC90 [28] of the same compound?
A: > 128 µg/mL

Q: And the MIC [29]?
A: > 128 µg/mL

Q: And the MIC50 [29]?
A: > 128 µg/mL

Q: And the MIC90 [29]?
A: > 128 µg/mL

Q: And the MIC [30]?
A: > 128 µg/mL

Q: And the MIC50 [30]?
A: > 128 µg/mL

Q: What about the MIC90 [30] of the same compound?
A: > 128 µg/mL

Q: And the MIC [31]?
A: > 128 µg/mL

Q: What about the MIC50 [31] of the same compound?
A: > 128 µg/mL

Q: And the MIC90 [31]?
A: > 128 µg/mL

Q: And the MIC [32]?
A: > 128 µg/mL

Q: And the MIC50 [32]?
A: > 128 µg/mL

Q: And the MIC90 [32]?
A: > 128 µg/mL

Q: What about the MIC [33] of the same compound?
A: > 128 µg/mL

Q: What about the MIC50 [33] of the same compound?
A: > 128 µg/mL

Q: And the MIC90 [33]?
A: > 128 µg/mL

Q: What about the MIC [34] of the same compound?
A: > 128 µg/mL

Q: And the MIC50 [34]?
A: > 128 µg/mL

Q: What about the MIC90 [34] of the same compound?
A: > 128 µg/mL

Q: And the MIC [35]?
A: > 128 µg/mL

Q: And the MIC50 [35]?
A: > 128 µg/mL

Q: What about the MIC90 [35] of the same compound?
A: > 128 µg/mL

Q: And the MIC [36]?
A: > 128 µg/mL

Q: And the MIC50 [36]?
A: > 128 µg/mL

Q: And the MIC90 [36]?
A: > 128 µg/mL

Q: What about the MIC [37] of the same compound?
A: > 128 µg/mL

Q: And the MIC50 [37]?
A: > 128 µg/mL

Q: And the MIC90 [37]?
A: > 128 µg/mL

Q: And the MIC [38]?
A: > 128 µg/mL

Q: And the MIC50 [38]?
A: > 128 µg/mL

Q: And the MIC90 [38]?
A: > 128 µg/mL

Q: And the MIC [39]?
A: > 128 µg/mL

Q: What about the MIC50 [39] of the same compound?
A: > 128 µg/mL

Q: And the MIC90 [39]?
A: > 128 µg/mL
